Reference: US20180271870A1, “Compositions and Methods for Immune Therapy” (Augusta University Research Institute, Inc., priority 2014, published 2018)

Assays:
CD8 T cells [1] = assay: Phenotyping of gp100-stimulated pMel-1 CD8 T cells by flow cytometry; assay type: cell-based, mouse; conditions: for up-regulation of exhaustion marker KLRG-1 in CD8 T cells: after the second and third stimulations; for CD62L expression in CD8 T cells / CD127 expression in CD8 T cells: day 3 and/or day 7 after each stimulation with gp100; for percentage of CD8 T cells with TCM phenotype (CD62LhiCD44hi): pMel-1 splenocytes, gp100 25-33 1 μM, representative example, gated viable CD8+Vβ13+; for percentage of naïve cells (CD62LhiCD44lo) versus non-treated: after 3 days of stimulation; for reservoir of TCM cells after repeated stimulation: day 7 after each stimulation, MK-2206 0.67 μM, Akt 1/2 inhibitor 2.2 μM
Experimental: Tumor antigen-specific CD8 T cells Unfractionated splenocytes from pMel-1 mice were homogenized and stimulated in vitro by gp10025-33 peptide at a 1 μM/ml concentration (day 0). Cells were cultured in RPMI 1640 (Lonza, Allendale, N.J.) supplemented with 10% FBS, penicillin (100 U/mL), streptomycin ([…]), 0.1% β-mercaptoethanol (Life Technologies, Invitrogen, Carlsbad, Calif.) and IL-2 (100 U/ml) (Peprotech, Rocky Hill, N.J.) at 37° C. with 5% CO2. […]. The concentration of the inhibitors was maintained throughout the culture by changing the media every 48-72 hours.
On Days 7, 14 and 21, cells were re-stimulated with gp10025-33 peptide at a 1 μM/ml concentration using feeder cells (irradiated WT splenocytes, 4000 Rads) at 1:1 ratio using the same culture conditions.
To assess the phenotype of the T cells, the cultured cells were harvested and analyzed on days 3, 7, 14 and 21. The cells were stained with APC-Cy7 labeled anti-CD8, FITC labeled anti-Vβ13, PE labeled anti-CD62L, APC labeled anti-CD44, PE-CF594 labeled anti-CD127, APC labeled anti-KLRG-1 in addition to the viability stain 7AAD (BD Biosciences, San Jose, Calif.). The same APC-Cy7 labeled anti-CD8 was used for sorting the cells using the FACS ARIA II (BD Biosciences, San Jose, Calif.).
For proliferation and phenotyping, the analyses were performed on CD8 T cells specific for the gp100 antigen and were gated on viable (7AAD−), Vβ13+CD8+ T cells. For WT and KO cells, the cells were gated on viable (7AAD−), CD8+ T cells.

CD8 T cells [2] = assay: Proliferation assay (VCT dye dilution / expansion) of gp100-stimulated pMel-1 CD8 T cells; assay type: cell-based, mouse; conditions: for expansion of CD8 T cells with further stimulations: re-stimulation days 7, 14, 21, normalized to non-treated control; for proliferation of CD8 T cells (VCT dilution): day 3 after first stimulation
Experimental: Prior to their stimulation (day 0), cells were labeled with 5 μM Violet Cell Trace (VCT) proliferation dye (Life Technologies, Invitrogen, Carlsbad, Calif.) following the manufacturers' instructions. Samples were then evaluated for CD8 T cell expansion via VCT dye dilution (day 3) using an LSRII SORP with HTS Flow Cytometer (BD Biosciences, San Jose, Calif.). The data were analyzed using FlowJo 9 or 10 (Tree Star).

[3] = intermittent dosing schedule of 480 mg twice a day; cited from earlier work
CD8 T cells [4] = assay: Phenotype of anti-CD3/anti-CD28 stimulated CD8 T cells from WT and Akt KO mice; assay type: cell-based, mouse; conditions: day 7; anti-CD3 (1 ng/ml) + anti-CD28; MK-2206 0.67 μM, Akt 1/2 inhibitor 2.2 μM
Experimental: The cells were then stimulated using feeder cells (irradiated WT splenocytes, 4000 Rads) at 1:1 ratio (day 0) using TCR stimulation ([…], BD Biosciences, San Jose, Calif.) and co-stimulation (anti-CD28 antibody 2.5 μg/ml BD Biosciences, San Jose, Calif.) in the presence of 100 U/ml IL-2 (Peprotech, Rocky Hill, N.J.). […] Cells were cultured in the same conditions described above. To assess the phenotype of the T cells, the cultured cells were harvested and analyzed on days 3, 7, 14 and 21. The cells were stained with APC-Cy7 labeled anti-CD8, FITC labeled anti-Vβ13, PE labeled anti-CD62L, APC labeled anti-CD44, PE-CF594 labeled anti-CD127, APC labeled anti-KLRG-1 in addition to the viability stain 7AAD (BD Biosciences, San Jose, Calif.). The same APC-Cy7 labeled anti-CD8 was used for sorting the cells using the FACS ARIA II (BD Biosciences, San Jose, Calif.). For proliferation and phenotyping, the analyses were performed on CD8 T cells specific for the gp100 antigen and were gated on viable (7AAD−), Vβ13+CD8+ T cells. For WT and KO cells, the cells were gated on viable (7AAD−), CD8+ T cells.

CD8 T cells [5] = assay: Cytometric bead array of cytokine secretion by re-stimulated pMel-1 CD8 T cells; assay type: cell-based, mouse; conditions: for IL-2 secretion: re-stimulated CD8 T cells; for IFNγ secretion with further stimulations / TNF secretion with further stimulations: supernatant after 24 hours, CBA
Experimental: Following the same activation protocol mentioned above, the pMel-1 gp100-specific CD8 T cells were harvested on day 7 after the first and second stimulation. The viable cells (trypan blue negative) were then counted and co-incubated (at 1:1 ratio) with 1 μM/ml gp10025-33 pulsated irradiated splenocytes (4000 Rads) for 24 hours using the same culture conditions. The supernatant was collected and the level of IL-2, TNF and IFN-γ was assessed using the mouse Th1/Th2/Th17 Cytokine Kit BD™ Cytometric Bead Array (CBA) kit. The data was collected using an LSRII SORP with HTS flow cytometer (BD Biosciences, San Jose, Calif.), and analyzed using the FCAP Array Software v3.0 (BD Biosciences, San Jose, Calif.).

[6] = test system: 250 other protein kinases; conditions: cited from earlier work
[7] = cited from earlier work

Compound	up-regulation of exhaustion marker KLRG-1 in CD8 T cells (CD8 T cells [1])	CD62L expression in CD8 T cells (CD8 T cells [1])	CD127 expression in CD8 T cells (CD8 T cells [1])	percentage of CD8 T cells with TCM phenotype (CD62LhiCD44hi) (CD8 T cells [1]) [%]	expansion of CD8 T cells with further stimulations (CD8 T cells [2])	percentage of naïve cells (CD62LhiCD44lo) versus non-treated (CD8 T cells [1])	reservoir of TCM cells after repeated stimulation (CD8 T cells [1])	TCM cells in CD8 T cells from Akt1 KO mice (CD8 T cells [4])	TCM cells in CD8 T cells from Akt2 KO mice (CD8 T cells [4])	TCM cells in CD8 T cells from Akt3 KO mice (CD8 T cells [4])	phenotype of CD8 T cells from WT mice (CD8 T cells [4])	proliferation of CD8 T cells (VCT dilution) (CD8 T cells [2])	IL-2 secretion (CD8 T cells [5])	IFNγ secretion with further stimulations (CD8 T cells [5])	TNF secretion with further stimulations (CD8 T cells [5])	also measured
NC1(C(=O)N[C@@H](CCO)c2ccc(Cl)cc2)CCN(c2ncnc3[nH]ccc23)CC1 [AZD5363]	inhibits the up-regulation	maintains a high level	maintains a high level	91	enhanced the proliferation											tolerability [3]: generally well tolerated
O.O=C(O)C(F)(F)F.O=c1[nH]c2ccccc2n1C1CCN(Cc2ccc(-c3nc4cc5[nH]cnc5cc4nc3-c3ccccc3)cc2)CC1 [Akt 1/2 inhibitor, 1,3-Dihydro-1-(1-((4-(6-phenyl-1H-imidazo[4,5-g]quinoxalin-7-yl)phenyl)methyl)-4-piperidinyl)-2H-benzimidazol-2-one trifluoroacetate salt hydrate]	mitigates the up-regulation	maintains a high level	maintains a high level	76	significantly enhanced	higher percentage	a high percentage was preserved	more TCM cells	maintains a significantly higher percentage of TCM cells	maintains a significantly higher percentage of TCM cells	consist mainly of TCM cells	inhibited in a dose-dependent manner	high secretion levels	preserved high levels	preserved high levels	
NC1(c2ccc(-c3nc4ccn5c(=O)[nH]nc5c4cc3-c3ccccc3)cc2)CCC1 [MK-2206]	inhibits the up-regulation	maintains a high level	maintains high levels	65	expand at a significantly high rate	higher percentage	a high percentage was preserved	more TCM cells	maintains a significantly higher percentage of TCM cells	maintains a significantly higher percentage of TCM cells	consist mainly of TCM cells	inhibited in a dose-dependent manner	significantly higher levels	maintain their ability to secrete IFNγ	significantly higher levels	inhibitory activities against 250 other protein kinases [6]: no inhibitory activities; dose-limiting toxicities ([7]; 30, 60, 75 or 90 mg on alternate days): skin rash and stomatitis; MTD ([7]; oral, alternate days, patients with advanced solid tumors): 60 mg; IFN-γ production after the second stimulation versus non-treated (CD8 T cells [5]; 24 hours after re-stimulation): high and comparable levels; IFN-γ secretion after the third stimulation versus non-treated (CD8 T cells [5]; 24 hours after re-stimulation): maintained at a significantly higher level; TNF production after the second stimulation versus non-treated (CD8 T cells [5]; 24 hours after re-stimulation): high and comparable levels; TNF secretion after the third stimulation versus non-treated (CD8 T cells [5]; 24 hours after re-stimulation): maintained at a significantly higher level
